Results taken from US20240293413A1, “COMPOUND AND METHOD FOR TREATING CHEMOTHERAPY-RELATED GASTROINTESTINAL SIDE EFFECTS” (ONQUALITY PHARMACEUTICALS CHINA LTD., priority 2021, published 2024).

Key:
Format in all cases: in vivo
[1] = test system: Chemotherapeutic agent-caused diarrhea models of Balb/c mice; assay: Examples 1-229 (Table 3): oral CDK inhibitor, relief of diarrhea caused by a chemotherapeutic agent;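 note: percent of treated mice whose diarrhea grade fell below chemotherapy-group average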
[2] = test system: diarrhea caused by a chemotherapeutic agent in Balb/c mice; assay: Examples 230-271 (Table 4): oral CDK inhibitor, relief of diarrhea caused by a chemotherapeutic agent; conditions: Example 262; Cytarabine (Ara-C) oral administration 1000 mg/kg single; CDK inhibitor oral single (dosage not given), 24 h before; cycle 8 days
Description: Balb/c mice were fed for 1 week, and then divided into groups. The experiment was divided into a control group, a chemotherapeutic agent group, and a CDK inhibitor group, each of which comprised 10 mice, to perform the administration experiment, for which the administration dosage, mode, time and frequency were shown in Table 4. The control group: being intragastrically administered with the same solvent as that used in the CDK inhibitor group (the time was shown in Table 4), and then being injected/intragastrically administered with the same solvent as that used in the chemotherapeutic agent group (the administration mode was shown in Table 4): the chemotherapeutic agent group: being intragastrically administered with the same solvent as that used in the CDK inhibitor group (the time was shown in Table 4), and then being injected/intragastrically administered with the chemotherapeutic agent (the type, administration mode and dosage were shown in Table 4): the CDK inhibitor group: being intragastrically administered with the CDK inhibitor (the time was shown in Table 4), and then being administered with the chemotherapeutic agent (the mode and dosage were shown in Table 4).
(§1) The diarrhea grading of mice was observed and recorded every day.

[3] = test system: Chemotherapeutic agent-caused constipation models of Balb/c mice; assay: Examples 272-342 (Table 5): oral CDK inhibitor, relief of constipation caused by a chemotherapeutic agent; conditions: Example 335; Cytarabine (Ara-C) oral administration 1000 mg/kg single; CDK inhibitor oral 60 mg/kg single, 24 h before; cycle 8 days;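 note: percent of treated mice relieved versus chemotherapy group by feces reduction rate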
Description: Construction of mouse animal models: Chemotherapeutic agent-caused constipation models of Balb/c mice were constructed according to the administration mode and frequency of the chemotherapeutic agent as shown in Table 5.
Balb/c mice were fed for 1 week, and then divided into groups. The experiment was divided into a control group, a chemotherapeutic agent group, and a CDK inhibitor group, each of which comprised 10 mice, to perform the administration experiment, for which the administration dosage, mode, time and frequency were shown in Table 5. The control group: being intragastrically administered with the same solvent as that used in the CDK inhibitor group (the time was shown in Table 5), and then being injected/intragastrically administered with the same solvent as that used in the chemotherapeutic agent group (the administration mode was shown in Table 5): the chemotherapeutic agent group: being intragastrically administered with the same solvent as that used in the CDK inhibitor group (the time was shown in […]), and then being injected/intragastrically administered with the chemotherapeutic agent (the type, administration mode and dosage were shown in Table 5): the CDK inhibitor group: being intragastrically administered with the CDK inhibitor (the time was shown in Table 5), and then being administered with the chemotherapeutic agent (the mode and dosage were shown in Table 5).
Feces reduction rate (%)=(the control group−the chemotherapeutic agent group or the CDK inhibitor group)/the control group*100%
The feces amount of mice within 3 hours was observed and recorded every day.

[4] = test system: diarrhea caused by a chemotherapeutic agent in Balb/c mice; assay: Examples 343-381 (Table 6): oral versus intravenous CDK inhibitor, relief of diarrhea caused by a chemotherapeutic agent; conditions: Example 370, Topotecan (TP) oral administration 20 mg/kg single, 24 h before, cycle 10 days;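 note: percent of treated mice whose diarrhea grade fell below chemotherapy-group average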
Description: Balb/c mice were fed for 1 week, and then divided into groups. The experiment was divided into a control group, a chemotherapeutic agent group, and an oral administration group of a CDK inhibitor, and an intravenous injection group of a CDK inhibitor, each of which comprised 10 mice, to perform the administration experiment, for which the administration dosage, mode, time and frequency were shown in Table 6. The control group: being injected/intragastrically administered with the same solvent as that used in the CDK inhibitor group (the time was shown in Table 6), and then being injected/intragastrically administered with the same solvent as that used in the chemotherapeutic agent group (the administration mode was shown in Table 6): the chemotherapeutic agent group: being injected/intragastrically administered with the same solvent as that used in the CDK inhibitor group (the time was shown in Table 6), and then being injected/intragastrically administered with the chemotherapeutic agent (the type, administration mode and dosage were shown in Table 6): the oral administration group of the CDK inhibitor: being intragastrically administered with the CDK inhibitor (the time was shown in Table 6), and then being administered with the chemotherapeutic agent (the mode and dosage were shown in Table 6): the intravenous injection group of the CDK inhibitor: being injected with the CDK inhibitor through tail vein (the time was shown in Table 6), and then being administered with the chemotherapeutic agent (the mode and dosage were shown in Table 6).
as §1

## CN1CCC(c2c(O)cc(O)c3c(=O)cc(-c4ccccc4Cl)oc23)C1CO (stereo not shown) [Riviciclib]
[1]; Example 35, Fluorouracil (5-Fu) intraperitoneal injection 125 mg/kg single, CDK inhibitor oral 65 mg/kg single 8 h before, cycle 10 days
  Relative remission rate (%): 40%
[1]; Example 192, Gemcitabine (GEM) intravenous injection 120 mg/kg single, CDK inhibitor oral 180 mg/kg single, 6 h before, 8 days
  Relative remission rate (%): 70%
[1]; Example 215, Fluorouracil 100 mg/kg and irinotecan 200 mg/kg intravenous injection single, CDK inhibitor oral 65 mg/kg single, 2 h before, 10 days
  Relative remission rate (%): 50%
[2]
  Relative remission rate: 20%
[3]
  Relative remission rate: 20%
[4]; CDK inhibitor intravenous injection 60 mg/kg single
  Relative remission rate: 10%
[4]; CDK inhibitor oral 60 mg/kg single
  Relative remission rate: 30%
